According to the supplement of paper PMC10307832:

Columns and labels:
Assay in all cases: relative viability (nuclei count vs DMSO), 5 days (fraction); higher = more cells survive
Vismodegib + Crizotinib = compound: CS(=O)(=O)c1ccc(C(=O)Nc2ccc(Cl)c(-c3ccccn3)c2)c(Cl)c1 [Vismodegib] + C[C@@H](Oc1cc(-c2cnn(C3CCNCC3)c2)cnc1N)c1c(Cl)ccc(F)c1Cl [Crizotinib] (partner 1 µM)
Method in brief: (§1)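 Nuclei were stained with Hoechst during a one-step fixation (final 0.05% Triton X-100, 1% formaldehyde, 1 ug/ml Hoechst) carried out 5 days after dosing, then counted on 4× images. The cells, lung cancer lines in 1536-well plates, had been dosed by pin tool the day after seeding with one drug alone or a fixed anchor-drug dose plus five library-drug doses (not always all listed) in √10 steps. Relative viability is the nuclei count in treated wells divided by that in vehicle wells, and each value is the median of duplicate plates.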

Vismodegib + Decitabine = compound: CS(=O)(=O)c1ccc(C(=O)Nc2ccc(Cl)c(-c3ccccn3)c2)c(Cl)c1 [Vismodegib] + Nc1ncn([C@H]2C[C@H](O)[C@@H](CO)O2)c(=O)n1 [Decitabine] (partner 2 µM)
Method in brief: as §1

Vismodegib + Vorinostat = compound: CS(=O)(=O)c1ccc(C(=O)Nc2ccc(Cl)c(-c3ccccn3)c2)c(Cl)c1 [Vismodegib] + O=C(CCCCCCC(=O)Nc1ccccc1)NO [Vorinostat] (partner 1 µM)
Method in brief: as §1

Ruxolitinib + Vorinostat = compound: N#CC[C@H](C1CCCC1)n1cc(-c2ncnc3[nH]ccc23)cn1 [Ruxolitinib] + O=C(CCCCCCC(=O)Nc1ccccc1)NO [Vorinostat] (partner 1 µM)
Method in brief: as §1

| Cell Line | relative viability (Vismodegib + Crizotinib; first compound 0.08 µM) | relative viability (Vismodegib + Crizotinib; first compound 0.253 µM) | relative viability (Vismodegib + Crizotinib; first compound 0.8 µM) | relative viability (Vismodegib + Crizotinib; first compound 2.53 µM) | relative viability (Vismodegib + Crizotinib; first compound 8 µM) | relative viability (Vismodegib + Decitabine; first compound 0.08 µM) | relative viability (Vismodegib + Decitabine; first compound 0.8 µM) | relative viability (Vismodegib + Decitabine; first compound 2.53 µM) | relative viability (Vismodegib + Decitabine; first compound 8 µM) | relative viability (Vismodegib + Vorinostat; first compound 0.08 µM) | relative viability (Vismodegib + Vorinostat; first compound 0.253 µM) | relative viability (Vismodegib + Vorinostat; first compound 0.8 µM) | relative viability (Vismodegib + Vorinostat; first compound 2.53 µM) | relative viability (Vismodegib + Vorinostat; first compound 8 µM) | relative viability (Ruxolitinib + Vorinostat; first compound 0.08 µM) | relative viability (Ruxolitinib + Vorinostat; first compound 0.253 µM) | relative viability (Ruxolitinib + Vorinostat; first compound 0.8 µM) | relative viability (Ruxolitinib + Vorinostat; first compound 2.53 µM) | relative viability (Ruxolitinib + Vorinostat; first compound 8 µM) | relative viability (Vismodegib + Decitabine; first compound 0.253 µM) |
| --- | --- | --- | --- | --- | --- | --- | --- | --- | --- | --- | --- | --- | --- | --- | --- | --- | --- | --- | --- | --- |
| HARA | 0.956 | 0.965 | 1.03 | 1.05 | 1.06 | 0.553 | 0.514 | 0.509 | 0.55 | 0.501 | 0.546 | 0.521 | 0.495 | 0.453 | 0.594 | 0.576 | 0.566 | 0.488 | 0.512 | – |
| COR-L 105 | 0.63 | 0.728 | 0.751 | 0.773 | 0.715 | 0.589 | 0.676 | 0.708 | 0.627 | 0.94 | 0.803 | 0.829 | 0.826 | 0.71 | – | 0.721 | 0.785 | 0.488 | 0.615 | 0.593 |
| EMC-BAC-2 | 0.768 | 0.797 | 0.72 | 0.73 | 0.796 | 1 | 0.964 | 0.9 | 1.04 | 0.515 | 0.302 | 0.418 | 0.476 | 0.422 | 0.412 | 0.432 | 0.443 | 0.621 | 0.279 | 0.926 |
| NCI-H1666 | 0.917 | 0.849 | 1.06 | 1 | 0.948 | 0.763 | 0.739 | 0.676 | 0.69 | 1.04 | 0.957 | 1 | 1.01 | 1.06 | 1.05 | 1.07 | 1.1 | 1.08 | 1.14 | 0.774 |
| H3255 | 0.812 | 0.737 | 0.965 | 0.913 | 0.597 | 0.569 | 0.578 | 0.604 | 0.562 | 0.488 | 0.747 | 0.915 | 0.835 | 0.782 | – | 0.9 | 0.892 | 0.791 | 0.382 | 0.567 |
| NCI-H1755 | 0.817 | 0.842 | 0.964 | 0.839 | 0.859 | 0.686 | 0.693 | 0.677 | 0.723 | 0.836 | 0.659 | 0.85 | 0.809 | 0.762 | 0.749 | 0.713 | 0.766 | 0.712 | 0.61 | 0.727 |
| LOU-NH91 | 0.726 | 0.76 | 0.704 | 0.747 | 0.728 | 0.796 | 0.84 | 0.819 | 0.81 | 0.884 | 0.899 | 0.793 | 0.845 | 0.885 | 0.864 | 0.886 | 0.952 | 0.897 | 0.917 | 0.806 |
| NCI-H1975 | 0.953 | 0.957 | 0.945 | 0.826 | 0.94 | 0.386 | 0.396 | 0.414 | 0.404 | 0.63 | 0.683 | 0.738 | 0.744 | 0.687 | 0.736 | 0.633 | 0.691 | 0.59 | 0.483 | 0.444 |
| NCI-H727 | 0.733 | 0.771 | 0.576 | 0.938 | 0.857 | 0.9 | 0.857 | 0.837 | 0.9 | 1.21 | 1.32 | 1.1 | 1.18 | 1.2 | 1.2 | 1.19 | 1.4 | 1.12 | 1.49 | 1.01 |
| NCI-H441 | 0.68 | 0.745 | 0.658 | 0.722 | 0.723 | 0.23 | 0.235 | 0.211 | 0.238 | 0.875 | – | 0.552 | 0.678 | 0.839 | 0.648 | 0.571 | 0.907 | 0.689 | 0.747 | – |
| NCI-H1944 | 0.993 | 1.22 | 1.08 | 1.05 | 1.08 | 0.428 | 0.456 | – | 0.405 | 0.592 | 0.522 | 0.735 | – | 0.568 | 0.63 | 0.537 | 0.605 | 0.483 | 0.521 | 0.413 |
| RERF-LC-KJ | 0.821 | 0.813 | 0.81 | 0.848 | 0.82 | 0.704 | 0.765 | 0.654 | 0.633 | 0.669 | 0.603 | 0.78 | 0.772 | 0.659 | 0.73 | 0.859 | 0.841 | 0.867 | 0.66 | 0.7 |
| NCI-H838 | 0.816 | 0.787 | 0.885 | 0.821 | 0.848 | 0.464 | 0.502 | 0.431 | 0.609 | 0.696 | 0.715 | 0.727 | 0.743 | 0.733 | 0.734 | 0.669 | 0.685 | 0.535 | 0.349 | 0.43 |
